Measured values as given in patent US7456154B2 (priority 2001, dated 2008).
Values joined by “and” are separate entries in the source; they are usually repeats but may differ in a detail not shown here. Equal values may be shown once.

How the values were obtained:
AChE-R mRNA [1] = assay: In situ hybridization of AChE-R mRNA in monkey spinal cord neurons; type: in vivo, Cynomolgus monkey
Method: (§1) In situ hybridization: Tissues were fixed in 4% paraformaldehyde and cut into 7 μm paraffin embedded sections. Spinal cord sections were deparaffinized, rehydrated using serial ethanol dilutions and permeabilized with proteinase K (10 μg/ml at room temp.). Slides were exposed to 5′ biotinylated, fully 2′-oxymethylated AChE-R or AChE-S-specific 50-mer cRNA probes complementary to human ACHE pseudo-intron 4 or exon 6, respectively [Grisaru et al. (2001) id ibid.]. Hybridization was performed overnight at 52° C. in hybridization mixture containing 10 μg/ml probe, 50 μg/ml yeast tRNA, 50 μg/ml heparin and 50% formamide in 375 mM Na chloride, 37.5 mM Na citrate, pH 4.5. For monkey sections, the probe was constructed according to the human AChE-R sequence; for rat sections, according to the mouse sequence. Slides were washed to remove non-hybridized probe, blocked with 1% skim milk containing 0.01% Tween-20 and 2 mM levamisole, an alkaline phosphatase inhibitor used to suppress non-specific staining and incubate with streptavidin-alkaline phosphatase (Amersham Pharmacia). Fast Red™ substrate (Roche Diagnostics) was used for detection. DAPI staining (Sigma Chemical Co., St. Louis, Mo., USA) served to visualize nuclei. Microscope images were analyzed with Image Pro Plus 4.0 (Media Cybernetics) software.
This experiment was conducted with six (3 males and 3 females) purpose-bred 15 month-old (young adult) Cynomolgus monkeys, divided in three groups (1, 2 and 3) of one male and one female each. Groups 1 and 2 received hEN101 daily by o.g. for a period of 7 days, at a concentration of 0.15 and 0.50 μg/g/day, respectively. Group 3 received daily i.v. injections of hEN101 for a period of 7 days at a dosage of 0.50 μg/g/day.
Paraffin-embedded 7 μm spinal cord sections were examined by in situ hybridization for the levels of AChE-R and AChE-S mRNA.
AChE-R-positive sections from monkey spinal cords were analyzed for the relation between cell body diameter and percentage of AChE-R positive cells (FIG. 15). Cells were divided into three categories according to their body diameter, and the percentage of AChE-R-positive cells from each category was evaluated. […] Either i.v. or p.o. administration of the higher EN101 concentration (500 μg/kg/day) reduced the percentage of AChE-R-positive neurons, compared to the lower concentration (p<0.05. Student's t test). […] We have yet to discover the functional correlate of cell size that determines the efficacy of antisense suppression of AChE-R expression.

AChE-S mRNA = assay: In situ hybridization of AChE-S mRNA in monkey spinal cord; type: in vivo, Cynomolgus monkey; settings: oral 0.15 and 0.50, i.v. 0.50 μg/g/day, 7 days
Method: as §1, with “software. […]” for “software.”

EAMG rats [2] = assay: Treadmill running time and clinical status of EAMG rats; type: in vivo, rat; settings: for Treadmill Performance Time: individual EAMG rat; for Clinical score: individual rat
AChE-R mRNA [3] = assay: AChE-R mRNA in mandibular lymph nodes of Crl:CD rats; type: in vivo, rat; settings: 0.50 μg/g/day, 7 days; rEN101 oral or i.v., hEN101 i.v.; vs saline
Method: A study of the potential efficacy as well as toxicity of hEN101 was conducted on 4 week-old Crl:CD rats. To groups of 12 animals (6 males, 6 females) were administered 0.0 (saline only), 0.50 or 2.50 μg/g/day of hEN101 by oral gavage (o.g.), 0.50 μg/g/day of rEN101 by o.g., or 0.50 μg/g/day of rEN101 or hEN101 by i.v. injection. Additionally, there was a control group that was not injected. For 7 days the animals were checked for gross signs of toxicity: mortality, body weight, food consumption, ophtalmology, hematology (peripheral blood), and blood chemistry. At 7 days they were sacrificed and examined post mortem for macroscopic pathology and organ weight. Fixed sections of brain (cerebellum, cerebrum, midbrain, medulla), heart (auricular and ventricular regions), kidneys (cortex, medulla, papilla regions), liver (all main lobes), lungs (two major lobes, including bronchi), lymph nodes (mandibular and mesenteric), spinal cord (transverse and longitudinal sections at cervical, lumbar and thoracic levels), caecum, colon, duodenum, ileum, jejunum, esophagus, rectum, spleen and stomach (keratinized, glandular and antrum) were stained with hematoxylin/eosin to reveal necrosis or cell death.
Mandibular lymph nodes were examined for the effect of EN101 on AChE-R mRNA. […]

AChE-S = AChE-S expression in mandibular lymph nodes of Crl:CD rats; type: in vivo, rat; settings: 0.50 μg/g/day, 7 days; rEN101 oral or i.v., hEN101 i.v.
AChE-R mRNA [4] = assay: In situ hybridization of AChE-R mRNA in rat spinal cord neurons; type: in vivo; settings: 500 μg/kg i.v. daily, 7 days
Method: FIG. 17 Effect of rEN101 on AChE-R mRNA in rat spinal cord neurons. The presence of AChE-R mRNA-positive cells was determined in spinal cord section of rats that had been treated for 7 days with rEN101 (500 μg/kg. i.v., daily).
as §1, with “Fast Red™ substrate (Roche Diagnostics) was used for detection. DAPI staining (Sigma Chemical Co., St. Louis, Mo., USA) served to visualize nuclei.” left out

EAMG rats [5] = assay: Electromyography: CMAP ratio under repetitive 3 Hz nerve stimulation in EAMG rats; type: in vivo, rat; settings: for CMAP ratio (5th vs. 1st amplitude): average ± SEM

5′-CTGCCACGTTCTCCTGCACC-3′ [hEN101]
Percent of small AChE-R-positive cells (<70 μm diameter) vs naive monkeys (AChE-R mRNA [1]; 150 μg/kg/day): caused an increase
Effect on AChE-R labeling of larger neurons (>70 μm) (AChE-R mRNA [1]; 150-500 μg/kg/day): not discernable effect
AChE-R mRNA in spinal cord (AChE-R mRNA [1]; increasing daily dose from 0.15 (oral) to 0.50 (oral or i.v.) μg/g/day, i.v. more effective): significant reduction
Percentage of labeled small (23 to 40 μm) and medium-sized (40 to 70 μm) neurons (AChE-R mRNA [1]; lower to higher oral dose (150 to 500 μg/kg/day), even further with i.v.): decreased significantly
AChE-S mRNA in spinal cord (AChE-S mRNA): no apparent reduction
Effect on muscle stamina in EAMG rats (EAMG rats [2]; 0.25 μg/g oral single dose): promoted muscle stamina
Treadmill Performance Time (EAMG rats [2]; 5 h, 0.25 μg/g oral single dose): 300 s and 120 s and 150 s and 70 s
Treadmill Performance Time (EAMG rats [2]; 24 h, 0.25 μg/g oral single dose): 345 s and 170 s and 380 s and 360 s and 30 s
Clinical score (EAMG rats [2]; 24 h, scale 0 to 5 (death), 0.25 μg/g oral single dose): (1) (3×) and (2) and |||| (3) and (3)
Treadmill Performance Time (EAMG rats [2]; 48 h, 0.25 μg/g oral single dose): 85 s and 290 s
Clinical score (EAMG rats [2]; 48 h, scale 0 to 5 (death), 0.25 μg/g oral single dose): 2.5 and 2 and || (5)
Treadmill Performance Time (EAMG rats [2]; before (basal), 0.25 μg/g oral single dose): 210 s and 80 s and 180 s and 30 s and 110 s and 0 s
Clinical score (EAMG rats [2]; before (basal), scale 0 (no weakness) to 5 (death)): (2.5) (2×) and 3 and (3.5) and (3) and 3.5
AChE-R mRNA levels in mandibular lymph nodes (AChE-R mRNA [3]): inconsistent in depressing AChE-R mRNA levels
Expression of AChE-S synaptic variant in mandibular lymph nodes (AChE-S): did not affect the expression

5′-CTGCGATATTTTCTTGTACC-3′ (chemistry not given here) [rEN101]
Treadmill running time after treatment (EAMG rats [2]; EAMG disease grade 2, 250 μg/Kg i.v., 24 h): 488 ± 58 s
Treadmill running time before treatment (EAMG rats [2]; EAMG disease grade 2, 25 m/min): 247 ± 35 s
Treadmill running time after treatment (EAMG rats [2]; EAMG disease grade 3, 250 μg/Kg i.v., 24 h): 500 ± 193 s
Treadmill running time before treatment (EAMG rats [2]; EAMG disease grade 3, 25 m/min): 179 ± 21 s
Treadmill running time after treatment (EAMG rats [2]; EAMG disease grade 4, 250 μg/Kg i.v., 24 h): 212 ± 59 s
Treadmill running time before treatment (EAMG rats [2]; EAMG disease grade 4, 25 m/min): 32 ± 6 s
AChE-R mRNA levels in mandibular lymph nodes (AChE-R mRNA [3]): inconsistent in depressing AChE-R mRNA levels
AChE-R mRNA in rat spinal cord neurons (AChE-R mRNA [4]): does not suppress AChE-R mRNA
Expression of AChE-S synaptic variant in mandibular lymph nodes (AChE-S): did not affect the expression
Duration of effective CMAP correction (EAMG rats [5]; 50 μg/Kg i.v.): 24 h
Duration of CMAP rectification (EAMG rats [5]; 500 μg/Kg i.v.): 72 h
Extent of CMAP rectification (EAMG rats [5]; 500 μg/Kg i.v.): up to 125 % of baseline
Average CMAP ratio in treated animals (EAMG rats [5]; EAMG rats, FIG. 9B inset): 107.4±3.8 % of first depolarization
Duration of restoration of CMAP decline (EAMG rats [5]; doses between 10-500 μg/Kg): up to 72 h
Time to retrieve stable CMAP ratios (EAMG rats [5]; i.v., doses 10-500 μg/Kg): ≤ 1 h
IC50 of saturable CMAP response (dose response curve) (EAMG rats [5]; i.v., up to 5 h following injection (1 and 5 h)): < 0.01 mg/kg
CMAP ratio (5th vs. 1st amplitude) (EAMG rats [5]; intravenous, EAMG rats, 0 h, 50 μg/Kg): 0.87 ± 0.01
CMAP ratio (5th vs. 1st amplitude) (EAMG rats [5]; intravenous, EAMG rats, 1 h, 50 μg/Kg): 1.00 ± 0.01
CMAP ratio (5th vs. 1st amplitude) (EAMG rats [5]; intravenous, EAMG rats, 5 h, 50 μg/Kg): 0.98 ± 0.02
CMAP ratio (5th vs. 1st amplitude) (EAMG rats [5]; intravenous, EAMG rats, 24 h, 50 μg/Kg): 1.00 ± 0.00
Effect of oral administration on CMAP decline (EAMG rats [5]; oral gavage, 50 μg/Kg oligonucleotide, 1000 μg/kg pyridostigmine, CMAP 1, 5, 24 h): as effective as 25 μg/Kg administered i.v.
CMAP ratio (5th vs. 1st amplitude) (EAMG rats [5]; oral, EAMG rats, 0 h, 50 μg/Kg oligonucleotide, 1000 μg/Kg pyridostigmine): 0.84 ± 0.03
CMAP ratio (5th vs. 1st amplitude) (EAMG rats [5]; oral, EAMG rats, 1 h, 50 μg/Kg oligonucleotide, 1000 μg/Kg pyridostigmine): 0.97 ± 0.02
CMAP ratio (5th vs. 1st amplitude) (EAMG rats [5]; oral, EAMG rats, 5 h, 50 μg/Kg oligonucleotide, 1000 μg/Kg pyridostigmine): 0.97 ± 0.03
CMAP ratio (5th vs. 1st amplitude) (EAMG rats [5]; oral, EAMG rats, 24 h, 50 μg/Kg oligonucleotide, 1000 μg/Kg pyridostigmine): 1.01 ± 0.01
CMAP ratio 24 h following single oral administration (EAMG rats [5]; single oral dose, rEN101 50 μg/kg, pyridostigmine 1000 μg/kg): no decline was detected
